Data: US10160785B2, “Antimicrobial peptides and their use for the treatment of topical infections” (priority 2015, dated 2018)
Where a SMILES comes first, the peptide text is derived from it.

What was measured:
Candida albicans Olomouc = settings: Candida albicans Olomouc; YPD medium; 37° C., 20 h (Example 2)
[1] = test system: Pseudomonas aeruginosa Liberec; settings: Pseudomonas aeruginosa Liberec; 37° C., 20 h
Method in brief: (§1)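 MIC broth microdilution, LB, ~10^5 CFU/well, peptide 0.1–100 μmol.l^−1 (twofold series). 37 °C, 20 h, continuous shaking; A540 every 15 min.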

[2] = test system: Staphylococcus aureus Liberec; settings: Staphylococcus aureus Liberec clinical isolate; 37° C., 20 h
Method in brief: as §1

[3] = test system: Methicillin resistant Staphylococcus aureus (MRSA) 6271; settings: 37° C., 20 h
Method in brief: as §1

[4] = test system: Staphylococcus epidermidis Motol; settings: 37° C., 20 h
Method in brief: as §1

[5] = test system: Staphylococcus aureus Motol; settings: Staphylococcus aureus Motol clinical isolate; 37° C., 20 h
Method in brief: as §1

Micrococcus luteus = settings: Micrococcus luteus; 37° C., 20 h
Method in brief: as §1

[6] = test system: Enterococcus faecalis Motol; settings: BHI medium, 37° C., 20 h
[7] = test system: Pseudomonas aeruginosa 5482; settings: 37° C., 20 h
Method in brief: as §1

Escherichia coli = settings: 37° C., 20 h
Method in brief: as §1

Bacillus subtilis = settings: Bacillus subtilis; 37° C., 20 h
Method in brief: as §1

in vitro = settings: human
Method in brief: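 Peptides at 2-200 μmol.l^−1 incubated 1 h at 37 °C with 5% v/v human erythrocyte suspension in physiological solution. Released haemoglobin in supernatant read at 540 nm against buffer (0%) and 0.2% Triton X100 (100%) lysis controls. LC50 is the peptide concentration lysing 50% of cells.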

CCCC[C@H](NC(=O)[C@H](CC(C)C)NC(=O)[C@H](CO)NC(=O)[C@H](CO)NC(=O)[C@H](CCCC)NC(=O)[C@@H](NC(=O)CN)[C@@H](C)CC)C(=O)N[C@@H](CCCCN)C(=O)N[C@@H](CCCCN)C(=O)N[C@@H](CC(C)C)C(=O)N[C@@H](CCCCN)C(=O)N[C@@H](CCCCN)C(=O)N[C@H](C(=O)N[C@H](C(=O)N[C@@H](C)C(=O)N[C@@H](CCCCN)C(N)=O)[C@@H](C)CC)[C@@H](C)CC [V] (HELM PEPTIDE1{G.I.[Nle].S.S.L.[Nle].K.K.L.K.K.I.I.A.K.[am]}$$$$V2.0)
Antimicrobial activity MIC C. a. Olomouc (Candida albicans Olomouc): 10.0 µM
Antimicrobial activity MIC P. a. Liberec [1]: 7.9 µM
Antimicrobial activity MIC S. a. Liberec [2]: 4.0 µM
Antimicrobial activity MIC S. a. 6271 [3]: 12.7 µM
Antimicrobial activity MIC S. e. Motol [4]: 2.5 µM
Antimicrobial activity MIC S. a. Motol [5]: 6.7 µM
Antimicrobial activity MIC M. l. (Micrococcus luteus): 1.6 µM
Antimicrobial activity MIC E. f. Motol [6]: 54.0 µM
Antimicrobial activity MIC P. a. 5482 [7]: 4.0 µM
Antimicrobial activity MIC E. c. (Escherichia coli): 10.0 µM
Antimicrobial activity MIC B. s. (Bacillus subtilis): 3.5 µM
HC50 at 1 h (in vitro): 373 µM
